# Reference: US11950592B2, “Method for enhancing plant disease controlling effects of aryl phenyl ketone fungicide, and method for controlling plant diseases” (ISHIHARA SANGYO KAISHA, LTD., priority 2016, dated 2024)
# Tests used:
# Type in all cases: in vivo
# Sphaerotheca fuliginea [1] = test: Test Example 7: curative effect against cucumber powdery mildew; details: no addition
# Description: (§1) Cucumber (cultivar: Sagamihanjiro Fushinari) was cultivated in a polyethylene pot having a diameter of 7.5 cm, and when the cucumber reached 1.5 leaf stage, the leaf adaxial surface was sprayed and inoculated with a suspension of conidia of Sphaerotheca fuliginea, the cucumber was cultivated in a room at 20° C. under the light for 3 days, and a chemical solution containing pyriofenone (dosage: 90 g ai/ha) or metrafenone (300 g ai/ha) prepared with an aqueous solution containing each product (0.02 to 0.07 v/v°/0) was applied (amount of solution applied: 800 L/ha) to the leaf adaxial surface by a spray gun. After the chemical solution dried, the cucumber was cultivated in a room at 20° C. under the light for 5 days. The lesion area ratio on the first leaf was examined, and the control value was calculated based on the following formula. Control value=(1−a/b)×100
# (§2) a: lesion area ratio in treated plot, b: lesion area ratio in non-treated plot
# Sphaerotheca fuliginea [2] = test: Test Example 8: curative effect against cucumber powdery mildew; details: no addition
# Description: as §1, with “product (0.001” for “product (0.02”, “to 5.0” for “to 0.07”, “for 7” for “for 5”
# as §2
# Sphaerotheca fuliginea [3] = test: Test Example 6: curative effect against cucumber powdery mildew; details: no addition
# Description: as §1, with “product (0.01” for “product (0.02”, “to 5.0” for “to 0.07”, “for 6” for “for 5”
# as §2
# Sphaerotheca fuliginea [4] = test: Test Example 9: curative effect against cucumber powdery mildew; details: no addition
# Description: as §1, with “product (0.005” for “product (0.02”, “to 1.0” for “to 0.07”, “for 7” for “for 5”
# as §2
# Sphaerotheca fuliginea [5] = test: Test Example 5: curative effect against cucumber powdery mildew; details: no addition
# Description: as §1, with “product (0.025” for “product (0.02”, “to 4.0” for “to 0.07”, “for 7” for “for 5”
# as §2
# Sphaerotheca fuliginea [6] = test: Test Example 2: curative effect against cucumber powdery mildew; details: pyriofenone 90 g ai/ha, no addition
# Description: Cucumber (cultivar: Sagamihanjiro Fushinari) was cultivated in a polyethylene pot having a diameter of 7.5 cm, and when the cucumber reached 1.5 leaf stage, the leaf adaxial surface was sprayed and inoculated with a suspension of conidia of Sphaerotheca fuliginea, the cucumber was cultivated in a room at 20° C. under the light for 3 days, and a chemical solution containing pyriofenone prepared with an aqueous solution containing each product (0.5 v/v°/0) was applied (dosage: 90 g ai/ha, amount of solution applied: 800 L/ha) to the leaf adaxial surface by a spray gun. After the chemical solution dried, the cucumber was cultivated in a room at 20° C. under the light for 6 days. The lesion area ratio on the adaxial surface of the first leaf was examined, and the control value was calculated based on the following formula. In Tables, “no addition” means the above treatment without adding the component (b) (the same applies hereinafter). Control value=(1−a/b)×100
# as §2
# Sphaerotheca fuliginea [7] = test: Test Example 1: curative effect against cucumber powdery mildew with different temperatures; details: pyriofenone 90 g ai/ha, no component (b)
# Description: Cucumber (cultivar: Sagamihanjiro Fushinari) was cultivated in a polyethylene pot having a diameter of 7.5 cm, and when the cucumber reached 1.5 leaf stage, the leaf adaxial surface was sprayed and inoculated with a suspension of conidia of Sphaerotheca fuliginea, the cucumber was cultivated in a room at 20° C. or 28° C. under the light for 3 days, and a chemical solution containing pyriofenone was applied (dosage: 90 g ai/ha, amount of solution applied: 800 L/ha) to the leaf adaxial surface by a spray gun. After the chemical solution dried, the cucumber was cultivated in a room at 20° C. or 28° C. under the light for 6 days. The lesion area ratio on the adaxial surface of the first leaf was examined, and the control value was calculated based on the following formula. Control value=(1−a/b)×100
# as §2
# Sphaerotheca fuliginea [8] = test: Test Example 4: curative effect against cucumber powdery mildew; details: pyriofenone 90 g ai/ha, no addition
# Description: (§3) Cucumber (cultivar: Sagamihanjiro Fushinari) was cultivated in a polyethylene pot having a diameter of 7.5 cm, and when the cucumber reached 1.5 leaf stage, the leaf adaxial surface was sprayed and inoculated with a suspension of conidia of Sphaerotheca fuliginea, the cucumber was cultivated in a room at 20° C. under the light to for 3 days, and a chemical solution containing pyriofenone prepared with an aqueous solution containing each product (0.025 to 0.25 v/v°/0) was applied (dosage: 90 g ai/ha, amount of solution applied: 800 L/ha) to the leaf adaxial surface by a spray gun. After the chemical solution dried, the cucumber was cultivated in a greenhouse for 4 days and then cultivated in a room at 20° C. under the light for 5 days. The lesion area ratio on the first leaf was examined, and the control value was calculated based on the following formula. Control value=(1−a/b)×100
# as §2
# Sphaerotheca fuliginea [9] = test: Test Example 12: curative effect against cucumber powdery mildew; details: pyriofenone 90 g ai/ha, no addition
# Description: as §1, with “for 4” for “for 3”, “ai/ha)” for “ai/ha) or metrafenone (300 g ai/ha)”, “product (0.015” for “product (0.02”, “to 0.5 v/v %)” for “to 0.07 v/v°/0)”, “for 6” for “for 5”
# as §2
# Oidiopsis sicula Scalia = test: Test Example 11: curative effect against sweet pepper powdery mildew; details: no addition
# Description: Sweet pepper (cultivar: Kyonami) was cultivated in a polyethylene pot having a diameter of 7.5 cm, and when the sweet pepper reached 8.5 leaf stage, the sweet pepper was dusted and inoculated with a suspension of conidia of Oidiopsis sicula Scalia, the sweet pepper was cultivated in a greenhouse under the light for 3 days, and a chemical solution containing pyriofenone (dosage: 90 g or 110 g ai/ha) prepared with an aqueous solution containing each product (0.07 to 4.0 v/v %) was applied (amount of solution applied: 600 L/ha) to the leaf adaxial surface by a spray gun. After the chemical solution dried, the cucumber was cultivated in a greenhouse under the light for 17 days. Each of eight lower leaves was investigated, and the disease severity was calculated in accordance with the following index. Further, the control value was calculated from the disease severity.
# Disease index 0: No spore formation
# Disease index 1: Formation of lesion (spores, foot cells, conidiogenous cells) is observed on the leaf abaxial side with an area of less than 10%.
# Disease index 2: Formation of lesion (spores, foot cells, conidiogenous cells) is observed on the leaf abaxial side with an area of from 10% to 25%.
# Disease index 3: Formation of lesion (spores, foot cells, conidiogenous cells) is observed on the leaf abaxial side with an area of from 26% to 50%. […]
# Sphaerotheca fuliginea [10] = test: Test Example 3: curative effect against cucumber powdery mildew; details: pyriofenone 90 g ai/ha, no addition
# Description: as §3, with “light” for “light to”, “product (0.05” for “product (0.025”, “a” for “a greenhouse for 4 days and then cultivated in a”, “for 6” for “for 5”
# as §2
# Sphaerotheca fuliginea [11] = test: Test Example 10: penetration effect against cucumber powdery mildew; details: pyriofenone 90 g ai/ha, no addition
# Description: (§4) Cucumber (cultivar: Sagamihanjiro Fushinari) was cultivated in a polyethylene pot having a diameter of 7.5 cm, and when the cucumber reached 1.5 leaf stage, a chemical solution containing pyriofenone (dosage: 90 g ai/ha) prepared with an aqueous solution containing each product (0.015 to 4.0 v/v %) was applied (amount of solution applied: 800 L/ha) to the leaf adaxial surface by a spray gun. After the chemical solution dried, the cucumber was cultivated in a room at 20° C. under the light for 4 days, the leaf abaxial surface was sprayed and inoculated with a suspension of conidia of Sphaerotheca fuliginea, and the cucumber was cultivated in a room at 20° C. under the light for 8 days. The lesion area ratio on the abaxial side of the first leaf was examined, and the control value was calculated based on the following formula. Control value=(1−a/b)×100
# as §2
# Sphaerotheca fuliginea [12] = test: Test Example 13: penetration effect against cucumber powdery mildew; details: pyriofenone 90 g ai/ha, no addition
# Description: as §4, with “to 1.0 v/v°/0)” for “to 4.0 v/v %)”, “for 3” for “for 4”, “for 7” for “for 8”
# as §2
SMILES,Control value Metrafenone (Sphaerotheca fuliginea [1]; metrafenone 300 g ai/ha),Control value Metrafenone (Sphaerotheca fuliginea [2]; metrafenone 300 g ai/ha),Control value Metrafenone (Sphaerotheca fuliginea [3]; metrafenone 300 g ai/ha),Control value Metrafenone (Sphaerotheca fuliginea [4]; metrafenone 300 g ai/ha),Control value Metrafenone (Sphaerotheca fuliginea [5]; metrafenone 300 g ai/ha),Control value (Sphaerotheca fuliginea [6]),Control value Pyriofenone (Sphaerotheca fuliginea [1]; pyriofenone 90 g ai/ha),Control value (Sphaerotheca fuliginea [7]; 20° C.),Control value (Sphaerotheca fuliginea [7]; 28° C.),Control value (Sphaerotheca fuliginea [8]),Control value Pyriofenone (Sphaerotheca fuliginea [2]; pyriofenone 90 g ai/ha),Control value Pyriofenone (Sphaerotheca fuliginea [3]; pyriofenone 90 g ai/ha),Control value (Sphaerotheca fuliginea [9]),Control value Dosage (g ai/ha) 90 (Oidiopsis sicula Scalia; pyriofenone 90 g ai/ha),Control value Dosage (g ai/ha) 110 (Oidiopsis sicula Scalia; pyriofenone 110 g ai/ha),Control value (Sphaerotheca fuliginea [10]),Control value (Sphaerotheca fuliginea [11]),Control value Pyriofenone (Sphaerotheca fuliginea [4]; pyriofenone 90 g ai/ha),Control value (Sphaerotheca fuliginea [12]),Control value Pyriofenone (Sphaerotheca fuliginea [5]; pyriofenone 90 g ai/ha)
"COc1cc(C)c(C(=O)c2c(OC)ccc(Br)c2C)c(OC)c1OC [Metrafenone, metrafenone]",65,60,60.2,75,65.7,–,–,–,–,–,–,–,–,–,–,–,–,–,–,–
"COc1cc(C)c(C(=O)c2c(OC)ncc(Cl)c2C)c(OC)c1OC [Pyriofenone, pyriofenone]",–,–,–,–,–,55,65,53,80,30,65,71.6,68,7.6,6.1,55,12,70,40,63
